Conditions: Liquid, Frequency=8 MHz, Dual path-length method

CC(C)C [2-methylpropane]
Conditions | speed of sound [m/s]
199.99 K, 409.39 kPa | 1393.6
199.99 K, 599.71 kPa | 1394.9
199.99 K, 1103.6 kPa | 1398.1
199.99 K, 2104.3 kPa | 1404.5
199.99 K, 3104.9 kPa | 1410.8
199.99 K, 4105.7 kPa | 1417.1
199.99 K, 5106.3 kPa | 1423.3
199.99 K, 6107 kPa | 1429.4
199.99 K, 7107.8 kPa | 1435.5
199.99 K, 8108.5 kPa | 1441.5
199.99 K, 9109.1 kPa | 1447.5
199.99 K, 10110 kPa | 1453.4
199.99 K, 12612 kPa | 1467.8
199.99 K, 15113 kPa | 1482
199.99 K, 17615 kPa | 1495.8
199.99 K, 20117 kPa | 1509.3
199.99 K, 25120 kPa | 1535.6
199.99 K, 30124 kPa | 1560.8
199.99 K, 35128 kPa | 1585.2
199.99 K, 40131 kPa | 1608.7
199.99 K, 45134 kPa | 1631.5
199.99 K, 50138 kPa | 1653.5
199.99 K, 60145 kPa | 1695.8
199.99 K, 70152 kPa | 1735.8
199.99 K, 80158 kPa | 1773.8
200 K, 90166 kPa | 1810.1
200 K, 100173 kPa | 1844.9
220 K, 1103.2 kPa | 1276.9
220 K, 2103.8 kPa | 1284.3
220 K, 3102.9 kPa | 1291.5
220 K, 3104.4 kPa | 1291.5
220 K, 4105.1 kPa | 1298.6
220 K, 5105.2 kPa | 1305.7
220 K, 6106 kPa | 1312.7
220 K, 7106.6 kPa | 1319.5
220 K, 8107.3 kPa | 1326.3
220 K, 9108 kPa | 1333
220 K, 10109 kPa | 1339.7
220 K, 10110 kPa | 1339.7
220 K, 12610 kPa | 1356
220 K, 15112 kPa | 1371.8
220 K, 17614 kPa | 1387.2
220 K, 20116 kPa | 1402.2
220 K, 20117 kPa | 1402.2
220 K, 25119 kPa | 1431.2
220 K, 30123 kPa | 1459
220 K, 30124 kPa | 1459
220 K, 35126 kPa | 1485.6
220 K, 40130 kPa | 1511.2
220 K, 40131 kPa | 1511.2
220 K, 45134 kPa | 1535.8
220 K, 50137 kPa | 1559.7
220 K, 60144 kPa | 1605.2
220 K, 70151 kPa | 1648
220 K, 80158 kPa | 1688.5
220 K, 90165 kPa | 1727
220 K, 100172 kPa | 1763.8
240 K, 402.14 kPa | 1153
240 K, 402.77 kPa | 1153
240 K, 602.82 kPa | 1154.8
240 K, 1103.6 kPa | 1159
240 K, 2103.9 kPa | 1167.5
240 K, 2104.3 kPa | 1167.5
240 K, 3104.9 kPa | 1175.8
240 K, 4105.7 kPa | 1184
240 K, 5106.3 kPa | 1192.1
240 K, 6107.2 kPa | 1200
240 K, 7108 kPa | 1207.8
240 K, 8108.1 kPa | 1215.5
240 K, 8109.3 kPa | 1215.5
240 K, 9110.1 kPa | 1223.1
240 K, 10111 kPa | 1230.6
240 K, 12613 kPa | 1248.8
240 K, 15113 kPa | 1266.5
240 K, 15114 kPa | 1266.5
240 K, 17616 kPa | 1283.7
240 K, 20118 kPa | 1300.3
240 K, 25121 kPa | 1332.3
240 K, 30124 kPa | 1362.6
240 K, 30125 kPa | 1362.6
240 K, 35128 kPa | 1391.6
240 K, 40132 kPa | 1419.3
240 K, 45135 kPa | 1445.9
240 K, 50139 kPa | 1471.5
240 K, 60146 kPa | 1520.1
